Source: patent US8791144B2, “Substituted N-phenyl-1-(4-Pyridinyl)-1H-pyrazol-3-amines” (Janssen Pharmaceutica NV, priority 2009, dated 2014)

What was measured:
hα7-wt nAChR [1] = molecular target: T1, hα7-wt nAChR (Homo sapiens, UniProt P36544); assay: Ca2+ flux imaging (FDSS): potentiation of the choline response; format: cell-based; settings: Ca2+ assay as described in D.1, potentiation of choline response, hα7-wt nAChR; for EC50: read-out: Potency (pEC50) (converted)
Method: • a) Assay Buffer • Hanks buffered saline solution (HBSS, Invitrogen, Belgium), supplemented with 10 mM HEPES (Invitrogen, Belgium), CaCl2 to a final concentration of 5 mM, 0.1% Bovine serum albumin (Sigma-Aldrich NV, Belgium). • b) Calcium-Sensitive Dye—Fluo-4AM • Fluo-4AM (Molecular Probes, USA) was dissolved in DMSO containing 10% Pluronic acid (Molecular Probes, USA) to give a stock solution which was diluted in assay buffer supplemented with 5 mM probenicid (Sigma, Aldrich NV, Belgium) to give a final concentration of 2 μM. • c) 384-Well Plates • Black 384 well plate black/clear plates, PDL pre-coated (Corning, Incorporated, USA) • d) Calcium Flux Measurement • A Functional drug screening system (FDSS, Hamamatsu) was used to measure intracellular free-calcium flux signals. Method
Monolayers of hα7-wt nAChR-expressing cells were grown in multi-well plates, in particular black-sided, transparent bottomed 384 well plates coated with poly-D-lysine for 24 hours prior to loading with a fluorescent calcium indicator, in a particular embodiment loading with fluo-4AM for up to 120 minutes.
PAM activity was detected in real time by applying the compounds to be tested to the loaded cells along with a α7 nicotinic receptor agonist during constant monitoring of cellular fluorescence in a FDSS. Compounds giving peak fluorescent responses greater than the response due to agonist alone, were considered to be α7 nAChR PAM's. In a particular embodiment, the α7 nicotinic receptor agonist was choline, a more particular embodiment choline applied at a sub-maximal concentration of 100 μM. In a further setting of the present invention the compounds to be tested were applied prior to the α7 nicotinic receptor agonist, in a particular embodiment up to 10 minutes prior to the agonist.
A control response to choline was calculated on each plate from the difference in peak in fluorescence in wells receiving either choline or assay buffer alone. Compounds of the present invention were tested at a concentration range from 0.01 μM to 30 μM. Compounds were considered to have an interesting activity when they potentiated the choline signal at least with 200% when tested at a concentration of 30 μM (the efficacy of 100 μM choline was defined as 100% in the absence of a PAM). An EC50 (or pEC50) was determined as a concentration relating to half the maximal effect, when a clear sigmoidal curve with top plateau was obtained.

hα7-wt nAChR [2] = molecular target: T1, hα7-wt nAChR; assay: Patch-clamp current recording (whole-cell voltage clamp), potentiation of choline current and PAM type; format: cell-based; set-up: key: Type 0 compounds minimally enhance the effect size of the current elicited by 1 mM choline.; Type 1 compounds enhance the effect size of the current elicited by 1 mM choline but minimally alter the kinetics of the receptor.; Type 2 compounds enhance the effect size of the current elicited by 1 mM choline while reducing the rate and/or the extent of desensitization.; Type 3 compounds enhance the effect size of the current elicited by 1 mM choline. When tested at higher concentrations up to 10 μM they completely inhibit desensitization, in particular a 1 mM choline application of 250 milliseconds.; Type 4 compounds allow for an initial desensitization of the receptor followed by a re-opening of the receptor during agonist application; settings: hα7-wt nAChR-expressing GH4C1 cells, 1 mM choline
Method: The compounds of the present invention are classified as type 0-4, based on qualitative kinetic properties, as determined by whole-cell voltage-clamp recordings. This classification is based on the effect of an α7 PAM compound, as described hereinbefore, on the signal elicited by an agonist application. In particular, said agonist is choline at a concentration of 1 mM. In a preferred experimental setting, said α7 PAM compound and choline are simultaneously applied to the cell, as described hereinafter. Desensitization is defined as the closure of the receptor upon activation during the application of the agonist in whole-cell voltage-clamp electrophysiology measurements seen as the reduction of the […] current after initial activation by the agonist.
The definition of the PAM types 0-4 is described hereinafter: • Type 0 compounds minimally enhance the effect size of the current elicited by 1 mM choline. • Type 1 compounds enhance the effect size of the current elicited by 1 mM choline but minimally alter the kinetics of the receptor. In particular, the rate and the extent of desensitization, elicited by the agonist, is not affected. The compound-modulated response to 1 mM choline, therefore, is a close to linear scaling of the 1 mM choline response in absence of the α7 PAM compound. • Type 2 compounds enhance the effect size of the current elicited by 1 mM choline while reducing the rate and/or the extent of desensitization. • Type 3 compounds enhance the effect size of the current elicited by 1 mM choline. […] At low-potency concentrations of the α7 PAM compound, the agonist-induced activation, which is followed by desensitization, can still be separated from the compound-induced re-opening as an initial inward current-maximum. At higher potency concentrations of the α7 PAM compound, the re-opening occurs faster than the closure due to desensitization so that the initial current-maximum disappears.
A compound was considered to have interesting PAM-like activity when the potentiation of the peak current was at least 200% compared to the control choline response (=100%). Such compounds are classified as belonging to a particular PAM type in the Experimental Part. Compounds not meeting the condition are not classified as belonging to a particular PAM-type.
The compounds also have a potentiating effect on the response to choline when measured by whole-cell patch clamp electrophysiology in GH4C1 cells stably over-expressing the human wild-type α7 receptor.
Patch-clamp recording from mammalian cells has provided a powerful means of assessing the function of membrane-bound proteins thought to be subunits of ligand-gated ion channels. Activation of such proteins by endogenous or exogenous ligands cause opening of a pore associated with the receptor through which ions flow down their electrochemical gradient. In the case of the hα7-wt nAChR-expressing GH4C1 recombinant cell line the preferential permeability to calcium of this receptor means that calcium flows into the cell upon activation by ACh, choline and other nicotinic ligands giving rise to a calcium current. Since this receptor rapidly desensitizes in the presence of agonist it is important an application system is used which is capable of very rapid switching of solutions (<100 ms) to prevent partial or full desensitisation of receptor responses coincident with the time of agonist application. Consequently, a second convenient technique to assess the enhancement of nicotinic efficacy is patch-clamp recording from hα7-wt nAChR-expressing GH4C1 cells coupled with a rapid-application system.
• a) Assay Buffers • The external recording solution consisted of 152 mM NaCl, 5 mM KCl, 1 mM MgCl2, 1 mM Calcium, 10 mM HEPES; pH 7.3. […]

T1 sequence (P36544 23-502): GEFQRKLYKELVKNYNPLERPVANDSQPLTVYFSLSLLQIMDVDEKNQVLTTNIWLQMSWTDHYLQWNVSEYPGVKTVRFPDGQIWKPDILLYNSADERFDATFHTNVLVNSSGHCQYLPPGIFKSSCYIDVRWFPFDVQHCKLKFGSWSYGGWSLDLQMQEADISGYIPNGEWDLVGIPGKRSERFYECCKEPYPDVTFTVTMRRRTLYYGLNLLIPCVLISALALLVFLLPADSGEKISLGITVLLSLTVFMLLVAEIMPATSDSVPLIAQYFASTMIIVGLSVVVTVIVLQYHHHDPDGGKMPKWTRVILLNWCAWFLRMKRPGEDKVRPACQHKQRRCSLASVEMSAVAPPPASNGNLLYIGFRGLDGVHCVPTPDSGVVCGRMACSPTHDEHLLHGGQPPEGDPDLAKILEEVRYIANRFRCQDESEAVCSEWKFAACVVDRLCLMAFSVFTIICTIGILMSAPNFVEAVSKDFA

EC50 (hα7-wt nAChR [1])	melting point	Emax (hα7-wt nAChR [1]; read-out: % Efficacy)	SMILES	PAM type (hα7-wt nAChR [2])
1.32 µM	129 °C		CC[C@H](O)Cc1cc(Nc2ccc(OC)c(C(F)(F)F)c2)nn1-c1ccnc(C)c1 [Compound 38, (alphaS)-alpha-ethyl-3-[[4-methoxy-3-(trifluoromethyl)phenyl]amino]-1-(2-methyl-4-pyridinyl)-1H-pyrazole-5-ethanol]	2
1.1 µM	192.6 °C		Cc1cc(-n2nc(Nc3cccc(Cl)c3F)cc2CC(=O)NC2CC2)ccn1 [Compound 76, 3-[(3-chloro-2-fluorophenyl)amino]-N-cyclopropyl-1-(2-methyl-4-pyridinyl)-1H-pyrazole-5-acetamide]	3
0.145 µM	236.4 °C		COc1cc(Cl)cc(Nc2cc(CC(=O)NC3CCC3)n(-c3ccnc(C)c3)n2)c1 [Compound 83, 3-[(3-chloro-5-methoxyphenyl)amino]-N-cyclobutyl-1-(2-methyl-4-pyridinyl)-1H-pyrazole-5-acetamide]	4
1.26 µM	248.9 °C		Cc1cc(-n2nc(Nc3ccc4c(c3)OC(F)(F)O4)cc2CC(=O)NC2CC2)ccn1 [Compound 100, N-cyclopropyl-3-[(2,2-difluoro-1,3-benzodioxol-5-yl)amino]-1-(2-methyl-4-pyridinyl)-1H-pyrazole-5-acetamide]	2
0.141 µM	199.4 °C		Cc1cc(-n2nc(Nc3cccc(OC(F)(F)F)c3)cc2CC(=O)NCC2CC2)cc(C)n1 [Compound 120, N-(cyclopropylmethyl)-1-(2,6-dimethyl-4-pyridinyl)-3-[[3-(trifluoromethoxy)phenyl]amino]-1H-pyrazole-5-acetamide]	2
1.15 µM	171 °C		Cc1cc(-n2nc(Nc3ccc(F)c(F)c3)cc2COCc2ccccc2)ccn1 [Compound 31, N-(3,4-difluorophenyl)-1-(2-methyl-4-pyridinyl)-5-[(phenylmethoxy)methyl]-1H-pyrazol-3-amine]	0
0.389 µM	228.3 °C		Cc1cc(-n2nc(Nc3cccc(OC(F)(F)F)c3)cc2CC(=O)NC(C)C)ccn1 [Compound 115, N-(1-methylethyl)-1-(2-methyl-4-pyridinyl)-3-[[3-(trifluoromethoxy)phenyl]amino]-1H-pyrazole-5-acetamide]	1
0.49 µM	223.2 °C		Cc1cc(-n2nc(Nc3cccc(Cl)c3F)cc2CC(=O)NC2CCC2)ccn1 [Compound 82, 3-[(3-chloro-2-fluorophenyl)amino]-N-cyclobutyl-1-(2-methyl-4-pyridinyl)-1H-pyrazole-5-acetamide]	2
3.47 µM	166.6 °C		CC[C@H](O)Cc1cc(Nc2cc(F)c(F)cc2F)nn1-c1ccnc(C)c1 [Compound 21, (alphaS)-alpha-ethyl-1-(2-methyl-4-pyridinyl)-3-[(2,4,5-trifluorophenyl)amino]-1H-pyrazole-5-ethanol]	2

Second part, the molecule before the results:

SMILES	EC50 (hα7-wt nAChR [1])	melting point	Emax (hα7-wt nAChR [1]; read-out: % Efficacy)	PAM type (hα7-wt nAChR [2])
CCNC(=O)Cc1cc(Nc2ccc3c(c2)OC(F)(F)O3)nn1-c1ccnc(C)c1 [Compound 98, 3-[(2,2-difluoro-1,3-benzodioxol-5-yl)amino]-N-ethyl-1-(2-methyl-4-pyridinyl)-1H-pyrazole-5-acetamide]	1.2 µM	239.2 °C		2
CCNC(=O)Cc1cc(Nc2cccc(OC(F)(F)F)c2)nn1-c1ccnc(C)c1 [Compound 113, N-ethyl-1-(2-methyl-4-pyridinyl)-3-[[3-(trifluoromethoxy)phenyl]amino]-1H-pyrazole-5-acetamide]	1.15 µM	210.3 °C		3
COc1cc(Nc2cc(CC(=O)NCC3CC3)n(-c3ccnc(C)c3)n2)cc(C(F)(F)F)c1 [Compound 5, N-(cyclopropylmethyl)-3-[[3-methoxy-5-(trifluoromethyl)phenyl]amino]-1-(2-methyl-4-pyridinyl)-1H-pyrazole-5-acetamide]	0.0759 µM	228.3 °C		4
Cc1cc(-n2nc(Nc3cccc(Cl)c3F)cc2CC(=O)NC2CC2)cc(C)n1 [Compound 78, 3-[(3-chloro-2-fluorophenyl)amino]-N-cyclopropyl-1-(2,6-dimethyl-4-pyridinyl)-1H-pyrazole-5-acetamide]	0.407 µM	222.9 °C		2
CCNC(=O)Cc1cc(Nc2cc(Cl)cc(OC)c2)nn1-c1ccnc(C)c1 [Compound 74, 3-[(3-chloro-5-methoxyphenyl)amino]-N-ethyl-1-(2-methyl-4-pyridinyl)-1H-pyrazole-5-acetamide]	0.776 µM	224 °C		4
CC[C@H](O)Cc1cc(Nc2ccc(F)c(F)c2)nn1-c1ccnc(C)c1 [Compound 17, (alphaS)-3-[(3,4-difluorophenyl)amino]-alpha-ethyl-1-(2-methyl-4-pyridinyl)-1H-pyrazole-5-ethanol]	1.66 µM	163.2 °C	880%	2
CCNC(=O)Cc1cc(Nc2cc(OC)cc(C(F)(F)F)c2)nn1-c1ccnc(C)c1 [Compound 45, N-ethyl-3-[[3-methoxy-5-(trifluoromethyl)phenyl]amino]-1-(2-methyl-4-pyridinyl)-1H-pyrazole-5-acetamide]	0.2 µM	248.6 °C		4
